Laboratory results reported in PubChem BioAssay (NCI).
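Grown in 96-well plates, cells were treated for 48 hours with each compound at five concentrations. Insufficient inhibition: endpoint recorded as highest concentration tested. Here, GI50 denotes the concentration required for 50% inhibition of growth. TGI: total growth inhibition.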

Legend:
Assay in all cases: NCI tumour cell line growth inhibition, 48 h
MDA-N = test system: MDA-N
KM20L2 colon = test system: KM20L2 colon
HOP-18 NSCLC = test system: HOP-18 NSCLC
XF 498 CNS = test system: XF 498 CNS
DMS 114 small cell lung = test system: DMS 114 small cell lung
SNB-78 CNS = test system: SNB-78 CNS
DLD-1 colon = test system: DLD-1 colon
RXF-631 renal = test system: RXF-631 renal
DMS 273 small cell lung = test system: DMS 273 small cell lung

Compound | GI50 (MDA-N) | TGI (MDA-N) | TGI (KM20L2 colon) | TGI (HOP-18 NSCLC) | TGI (XF 498 CNS) | TGI (DMS 114 small cell lung) | TGI (SNB-78 CNS) | TGI (DLD-1 colon) | TGI (RXF-631 renal) | TGI (DMS 273 small cell lung) | GI50 (KM20L2 colon) | GI50 (XF 498 CNS) | GI50 (DMS 114 small cell lung) | GI50 (SNB-78 CNS) | GI50 (DLD-1 colon)
CCCC(=O)Nc1ncnc2c1ncn2C1OC2COP(=O)(O)OC2C1OC(=O)CCC (stereo not given) | > 1000 µM | > 1000 µM | – | – | – | – | – | – | – | – | – | – | – | – | –
COC(=O)C(C(=O)C(=O)Nc1ccc([N+](=O)[O-])cc1)c1nc2cc(C)c(C)cc2[nH]c1=O (stereo not given) | – | – | > 100 µM | > 100 µM | > 100 µM | > 100 µM | > 100 µM | > 100 µM | – | – | – | – | – | – | –
O=c1nc(-c2ccccc2)scc1-c1ccccc1 | – | – | > 100 µM | > 100 µM | > 100 µM | > 100 µM | – | > 100 µM | > 100 µM | – | – | – | – | – | –
COc1ccc(NC(=O)CC(=O)n2nc(-c3ccccc3)c(N=Nc3ccccc3C)c2-c2ccccc2)cc1 | – | > 100 µM | > 100 µM | > 100 µM | 33.3 µM | 49.7 µM | – | 82.5 µM | > 100 µM | 41.2 µM | – | – | – | – | –
NCC(=O)NC(CO)C(=O)O (stereo not given) | – | > 100 µM | – | – | – | – | – | – | – | – | – | – | – | – | –
CC1=C2[C@@H](c3ccccc3)C3C=CC2(c2ccccc23)N(C(=O)Nc2cccc3ccccc23)C1=O (stereo not given in full) | – | – | > 100 µM | > 100 µM | > 100 µM | > 100 µM | > 100 µM | – | – | > 100 µM | – | – | – | – | –
CNC(=O)OCc1cc2ccncc2c2c1[nH]c1ccccc12 | – | – | > 100 µM | > 100 µM | 97.9 µM | > 100 µM | > 100 µM | > 100 µM | – | > 100 µM | – | – | – | – | –
N#Cc1nc(Nc2ccc(Cl)cc2)sc1N | – | – | > 52 µM | > 100 µM | > 100 µM | 73.7 µM | > 100 µM | > 100 µM | – | > 63.8 µM | – | – | – | – | –
O=[N+]([O-])c1ccc(NN=C2c3ccccc3Cc3ccccc32)c([N+](=O)[O-])c1 | – | 7.75 µM | – | – | – | – | – | – | – | – | – | – | – | – | –
COc1cc2c(cc1OC)C1(c3ccccc3)ON=C(c3ccccc3)N1CS2 (stereo not given) | – | – | > 100 µM | > 100 µM | > 100 µM | > 100 µM | > 100 µM | > 100 µM | > 100 µM | > 100 µM | – | – | – | – | –
Cc1ccc2nc(CC(=O)c3ccc4ccccc4c3)c(=O)[nH]c2c1 | – | > 100 µM | – | – | – | – | – | – | – | – | – | – | – | – | –
O=C(CC(=O)c1cccc([N+](=O)[O-])c1)C(=O)Nc1nc([N+](=O)[O-])cs1 | – | – | > 100 µM | > 100 µM | – | > 100 µM | > 100 µM | > 100 µM | > 100 µM | > 100 µM | – | – | – | – | –
CC1OC(n2cc(I)c(=O)[nH]c2=O)C=CC1=O (stereo not given) | – | – | 31 µM | 30.3 µM | 33.3 µM | 31 µM | 31.9 µM | 26 µM | – | 31.3 µM | – | – | – | – | –
O=c1[nH]c(=O)n(C2OC(CO)C(O)C2O)cc1OCc1ccccc1 (stereo not given) | – | – | > 100 µM | > 100 µM | > 100 µM | > 72.2 µM | > 100 µM | > 78 µM | > 100 µM | > 100 µM | – | – | – | – | –
CCCCCCCCCCNC(=S)OCCCC | – | – | 37.7 µM | 81.5 µM | 39.8 µM | 45.8 µM | 88.4 µM | 85.4 µM | 87.1 µM | 42.3 µM | – | – | – | – | –
COc1ccc(C(=O)C(CC2C(=O)CC(C)(C)C(C(=O)C(=O)Nc3c(C)cccc3C)C2=O)c2ccc(OC)cc2)cc1 (stereo not given) | – | > 100 µM | – | – | – | – | – | – | – | – | – | – | – | – | –
CN1CCc2cc(O)c3cc2C1Cc1ccc(cc1)Oc1cc(ccc1O)CC1c2c(cc4c(c2O3)OCO4)CCN1C (stereo not given) | – | – | 45.9 µM | – | 29.2 µM | 39.4 µM | > 100 µM | > 100 µM | – | 86.2 µM | – | – | – | – | –
CCOC1=C2C(C)(CCC3[C@@]4(C)C=CC(=O)C(C)(C)C4CC(O)[C@@]23C)C(c2ccoc2)C1=O (stereo not given in full) | – | – | 32 µM | > 100 µM | – | 36.8 µM | > 100 µM | 29.7 µM | 70.5 µM | > 100 µM | – | – | – | – | –
C=C(CN(C)C)C(=O)c1ccc(OC)cc1 | – | 22.5 µM | 13.7 µM | 9.35 µM | 5.1 µM | 8.38 µM | 7.83 µM | 2.03 µM | – | 11.6 µM | – | – | – | – | –
C[CH2][Sn]([Cl])([CH2]C)[CH2]C | – | – | 2.99 µM | – | 3.26 µM | 4.7 µM | 5.04 µM | 15.8 µM | – | – | 0.524 µM | 0.867 µM | 0.968 µM | 0.922 µM | 0.973 µM
